In patent US20120039847A1, “Hepatitis C Virus Inhibitors” (priority 2010, published 2012):

test system: HCV genotype 1b replicon (2209-23 cells, Huh7); assay: HCV replicon assay (Renilla luciferase reporter); format: cell-based; settings: Hepatitis C virus, Huh-7, 72 h, Huh7-derived cell line 2209-23, three days incubation, luciferase readout

Row | SMILES | IC50 [nM]
1 | COC(=O)N[C@H](C(=O)N1CCC[C@H]1C(=O)Nc1ccc2cc(-c3ccc(-c4cnc([C@@H]5CCCN5C(=O)[C@@H](NC(=O)OC)C(C)C)[nH]4)cc3)ccc2c1)C(C)C [I-1, ((S)-1-{(S)-2-[6-(4-{2-[(S)-1-((S)-2-Methoxycarbonylamino-3-methyl-butyryl)-pyrrolidin-2-yl]-3H-imidazol-4-yl}-phenyl)-naphthalen-2-ylcarbamoyl]-pyrrolidine-1-carbonyl}-2-methyl-propyl)-carbamic acid methyl ester] | 0.041
2 | COC(=O)N[C@H](C(=O)N1CCC[C@H]1C(=O)NC1CCCc2cc(-c3ccc(-c4cnc([C@@H]5CCCN5C(=O)[C@@H](NC(=O)OC)C(C)C)[nH]4)cc3)ccc21)C(C)C (stereo partly drawn) [I-2, [(S)-1-((S)-2-{5-[4-(5-{[(S)-1-((S)-2-Methoxycarbonylamino-3-methyl-butyryl)-pyrrolidine-2-carbonyl]-amino}-5,6,7,8-tetrahydro-naphthalen-2-yl)-phenyl]-1H-imidazol-2-yl}-pyrrolidine-1-carbonyl)-2-methyl-propyl]-carbamic acid methyl ester] | 4
3 | COC(=O)N[C@H](C(=O)N1CCC[C@H]1C(=O)Nc1ccc2nc(-c3ccc(-c4cnc([C@@H]5CCCN5C(=O)[C@@H](NC(=O)OC)C(C)C)[nH]4)cc3)ccc2c1)C(C)C [I-3, ((S)-1-{(S)-2-[2-(4-{2-[(S)-1-((S)-2-Methoxycarbonylamino-3-methyl-butyryl)-pyrrolidin-2-yl]-3H-imidazol-4-yl}-phenyl)-quinolin-6-ylcarbamoyl]-pyrrolidine-1-carbonyl}-2-methyl-propyl)-carbamic acid methyl ester] | 0.413
4 | COC(=O)N[C@H](C(=O)N1CCC[C@H]1C(=O)NC1CCc2cc(-c3ccc(-c4cnc([C@@H]5CCCN5C(=O)[C@@H](NC(=O)OC)C(C)C)[nH]4)cc3)ccc21)C(C)C (stereo partly drawn) [I-4, [(S)-1-((S)-2-{5-[4-(1-{[(S)-1-((S)-2-Methoxycarbonylamino-3-methyl-butyryl)-pyrrolidine-2-carbonyl]-amino}-indan-5-yl)-phenyl]-1H-imidazol-2-yl}-pyrrolidine-1-carbonyl)-2-methyl-propyl]-carbamic acid methyl ester] | 0.31
5 | COC(=O)N[C@H](C(=O)N1CCC[C@H]1C(=O)Nc1cccc2cc(-c3ccc(-c4cnc([C@@H]5CCCN5C(=O)[C@@H](NC(=O)OC)C(C)C)[nH]4)cc3)ccc12)C(C)C [I-5, [(S)-1-((S)-2-{5-[4-(5-{[(S)-1-((S)-2-Methoxycarbonylamino-3-methyl-butyryl)-pyrrolidine-2-carbonyl]-amino}-naphthalen-2-yl)-phenyl]-1H-imidazol-2-yl}-pyrrolidine-1-carbonyl)-2-methyl-propyl]-carbamic acid methyl ester] | 0.2
6 | COC(=O)N[C@H](C(=O)N1CCC[C@H]1C(=O)Nc1nccc2cc(-c3ccc(-c4cnc([C@@H]5CCCN5C(=O)[C@@H](NC(=O)OC)C(C)C)[nH]4)cc3)ccc12)C(C)C [I-6, [(S)-1-((S)-2-{5-[4-(1-{[(S)-1-((S)-2-Methoxycarbonylamino-3-methyl-butyryl)-pyrrolidine-2-carbonyl]-amino}-isoquinolin-6-yl)-phenyl]-1H-imidazol-2-yl}-pyrrolidine-1-carbonyl)-2-methyl-propyl]-carbamic acid methyl ester] | 13.9
7 | COC(=O)N[C@H](C(=O)N1CCC[C@H]1C(=O)Nc1ccc2cc(-c3ccc(-c4cnc([C@@H]5CCCN5C(=O)[C@@H](NC(=O)OC)C(C)C)[nH]4)cc3)ccc2n1)C(C)C [I-7, ((S)-1-{(S)-2-[6-(4-{2-[(S)-1-((S)-2-Methoxycarbonylamino-3-methyl-butyryl)-pyrrolidin-2-yl]-3H-imidazol-4-yl}-phenyl)-quinolin-2-ylcarbamoyl]-pyrrolidine-1-carbonyl}-2-methyl-propyl)-carbamic acid methyl ester] | 0.15
8 | COC(=O)N[C@H](C(=O)N1CCC[C@H]1C(=O)Nc1nc2cc(-c3ccc(-c4cnc([C@@H]5CCCN5C(=O)[C@@H](NC(=O)OC)C(C)C)[nH]4)cc3)ccc2[nH]1)C(C)C [I-8, [(S)-1-((S)-2-{5-[4-(2-{[(S)-1-((S)-2-Methoxycarbonylamino-3-methyl-butyryl)-pyrrolidine-2-carbonyl]-amino}-1H-benzoimidazol-5-yl)-phenyl]-1H-imidazol-2-yl}-pyrrolidine-1-carbonyl)-2-methyl-propyl]-carbamic acid methyl ester] | 0.37
9 | COC(=O)N[C@H](C(=O)N1CCC[C@H]1C(=O)NC1Cc2ccc(-c3ccc(-c4cnc([C@@H]5CCCN5C(=O)[C@@H](NC(=O)OC)C(C)C)[nH]4)cc3)cc2C1)C(C)C (stereo partly drawn) [I-9, ((S)-1-{(S)-2-[5-(4-{2-[(S)-1-((S)-2-Methoxycarbonylamino-3-methyl-butyryl)-pyrrolidin-2-yl]-3H-imidazol-4-yl}-phenyl)-indan-2-ylcarbamoyl]-pyrrolidine-1-carbonyl}-2-methyl-propyl)-carbamic acid methyl ester] | 0.43
10 | COC(=O)N[C@H](C(=O)N1CCC[C@H]1C(=O)NC1CCc2cc(-c3ccc(-c4cnc([C@@H]5CCCN5C(=O)[C@@H](NC(=O)OC)C(C)C)[nH]4)cc3)ccc2C1)C(C)C (stereo partly drawn) [I-10, ((S)-1-{(S)-2-[6-(4-{2-[(S)-1-((S)-2-Methoxycarbonylamino-3-methyl-butyryl)-pyrrolidin-2-yl]-3H-imidazol-4-yl}-phenyl)-1,2,3,4-tetrahydro-naphthalen-2-ylcarbamoyl]-pyrrolidine-1-carbonyl}-2-methyl-propyl)-carbamic acid methyl ester] | 1.2
11 | COC(=O)N[C@H](C(=O)N1CCC[C@H]1c1ncc(-c2ccc(-c3ccc4cc(NC(=O)[C@@H]5CCCN5C(C)=O)ccc4n3)cc2)[nH]1)C(C)C [I-11, ((S)-1-{(S)-2-[5-(4-{6-[((S)-1-Acetyl-pyrrolidine-2-carbonyl)-amino]-quinolin-2-yl}-phenyl)-1H-imidazol-2-yl]-pyrrolidine-1-carbonyl}-2-methyl-propyl)-carbamic acid methyl ester] | 0.63
12 | COC(=O)N[C@H](C(=O)N1CCC[C@H]1C(=O)N1CCc2cc(-c3ccc(-c4cnc([C@@H]5CCCN5C(=O)[C@@H](NC(=O)OC)C(C)C)[nH]4)cc3)ccc2C1)C(C)C [I-12, ((S)-1-{(S)-2-[5-(4-{2-[(S)-1-((S)-2-Methoxycarbonylamino-3-methyl-butyryl)-pyrrolidine-2-carbonyl]-1,2,3,4-tetrahydro-isoquinolin-6-yl}-phenyl)-1H-imidazol-2-yl]-pyrrolidine-1-carbonyl}-2-methyl-propyl)-carbamic acid methyl ester] | 2.06
13 | COC(=O)N[C@H](C(=O)N1CCC[C@H]1c1ncc(-c2ccc(-c3ccc4cc(NC(=O)[C@@H]5CCCN5C(=O)C(C)C)ccc4n3)cc2)[nH]1)C(C)C [I-13, ((S)-1-{(S)-2-[5-(4-{6-[((S)-1-Isobutyryl-pyrrolidine-2-carbonyl)-amino]-quinolin-2-yl}-phenyl)-1H-imidazol-2-yl]-pyrrolidine-1-carbonyl}-2-methyl-propyl)-carbamic acid methyl ester] | 1.06
14 | COC(=O)N[C@H](C(=O)N1CCC[C@H]1c1ncc(-c2ccc(-c3ccc4cc(NC(=O)[C@@H]5CCCN5C(=O)CC(C)C)ccc4n3)cc2)[nH]1)C(C)C [I-14, [(S)-2-Methyl-1-((S)-2-{5-[4-(6-{[(S)-1-(3-methyl-butyryl)-pyrrolidine-2-carbonyl]-amino}-quinolin-2-yl)-phenyl]-1H-imidazol-2-yl}-pyrrolidine-1-carbonyl)-propyl]-carbamic acid methyl ester] | 1.7
15 | COC(=O)N[C@H](C(=O)N1CCC[C@H]1c1ncc(-c2ccc(-c3ccc4cc(NC(=O)[C@@H]5CCCN5C(=O)c5ccccc5)ccc4n3)cc2)[nH]1)C(C)C [I-15, ((S)-1-{(S)-2-[5-(4-{6-[((S)-1-Benzoyl-pyrrolidine-2-carbonyl)-amino]-quinolin-2-yl}-phenyl)-1H-imidazol-2-yl]-pyrrolidine-1-carbonyl}-2-methyl-propyl)-carbamic acid methyl ester] | 1.4
16 | COC(=O)N[C@H](C(=O)N1CCC[C@H]1C(=O)NCc1ccc(-c2ccc(-c3cnc([C@@H]4CCCN4C(=O)[C@@H](NC(=O)OC)C(C)C)[nH]3)cc2)cc1)C(C)C [I-16, ((S)-1-{(S)-2-[(4′-{2-[(S)-1-((S)-2-Methoxycarbonylamino-3-methyl-butyryl)-pyrrolidin-2-yl]-3H-imidazol-4-yl}-biphenyl-4-ylmethyl)-carbamoyl]-pyrrolidine-1-carbonyl}-2-methyl-propyl)-carbamic acid methyl ester] | 1.23
